Data reported in patent US20220111378A1, “METHODS AND SYSTEMS FOR DETERMINING TARGET SENSITIVITY TO A THERAPEUTIC FORMULA” (priority 2019, published 2022).

Tests used:
[1] = tested on: Candida tropicalis CanTCDC345; experiment: Growth curves at breakpoint concentrations compared with culture results (optical AST); assay type: cell-based; settings: clinical isolate CanTCDC345, confirmed for caspofungin within approximately 12 minutes
Protocol: (§1) To prepare a spiked bacterial sample, 1 mL of an overnight culture was diluted into 25 mL of warm cation-adjusted Mueller Hinton broth, allowed to grow to log phase at 37 C in a shaking incubator, and counted using a hemocytometer. The bacteria were then diluted in additional warm broth to a final concentration of 1E5 to 8E5 CFU/mL. A 2-mL aliquot of the bacterial solution was added to a disposable 1-cm cuvette containing a pre-dispensed volume of water, diluent and antibiotic according to the experiment at hand. The fluids were mixed by pipetting. A no-antibiotic control was used in each experiment, which contained only the appropriate volume of water and diluent. A set of three cuvettes, such as in 41 or 43a, 43b or 43c, containing identical mixtures were assembled side-to-side into a three-centimeter light path and inserted into the prototype sensitivity module shown in FIGS. 2A and 2B. A total of four sets of cuvettes could be examined in the prototype at one time. The prototype maintains the cultures at 37 C with gentle agitation to mitigate the effects of bacterial settling. Optical transmissions through each set of cuvettes were taken every 5 seconds for the no-antibiotic control and the experimental cuvettes. The bacteria were allowed to grow from 10 minutes to two hours depending on the antibiotics and/or bacteria being tested. The final curves were analyzed to determine whether the bacteria were sensitive or resistant to each drug or drug combination.
(§2) In the proof-of-concept device used to generate the data provided in this example, a 3-cm light path and lasers at 405 nm and 532 nm were used. Antimicrobial resistance profiles of 17 clinical isolates of 11 uropathogens were followed from 20 minutes to three hours, against 8 antibiotics, both lytic and static.

K. pneumoniae KpH201 = settings: clinical isolate KpH201; breakpoint concentrations; confirmed by growth curves vs no-antibiotic control within approximately 20 minutes
Protocol: as §1, with “The bacteria were allowed to grow from 10 minutes to two hours depending on the antibiotics and/or bacteria being tested.” left out, “combination. […]” for “combination.”

[2] = tested on: Enterococcus faecalis EfR100; experiment: Growth curves at breakpoint concentrations compared with culture results (optical AST); assay type: cell-based; settings: clinical isolate EfR100, confirmed by growth curves within approximately 33 minutes
Protocol: as §1, §2

[3] = tested on: Escherichia coli EcUAH202; experiment: as above; assay type: cell-based; settings: clinical isolate EcUAH202, confirmed for ampicillin and levofloxacin within approximately 7 minutes
Protocol: as §1, §2

[4] = tested on: Pseudomonas aeruginosa PaH201; experiment: as above; assay type: cell-based; settings: clinical isolate PaH201, confirmed for ampicillin and ciprofloxacin within approximately 42 minutes
Protocol: as §1, §2

[5] = tested on: Staphylococcus aureus SaR100; experiment: as above; assay type: cell-based; settings: clinical isolate SaR100, confirmed by growth curves within approximately 42 minutes
Protocol: as §1, §2

[6] = tested on: sterile urine sample spiked with clinical isolate EcUAH202; settings: EcUAH202 spiked into sterile urine; breakpoint concentrations; confirmed for ampicillin within approximately 5 minutes
Protocol: as §1, with “The bacteria were then diluted in additional warm broth to a final concentration of 1E5 to 8E5 CFU/mL.” left out, “combination. […]” for “combination.”

SMILES	Culture results: sensitivity or resistance of the strain [1]	Culture results: sensitivity or resistance of the strain (K. pneumoniae KpH201)	Culture results: sensitivity or resistance of the strain [2]	Culture results: sensitivity or resistance of the strain [3]	Culture results: sensitivity or resistance of the strain [4]	Culture results: sensitivity or resistance of the strain [5]	Culture results: sensitivity or resistance of the strain [6]
CC[C@H](C)C[C@H](C)CCCCCCCCC(=O)N[C@H]1C[C@@H](O)[C@@H](NCCN)NC(=O)[C@@H]2[C@@H](O)CCN2C(=O)[C@H]([C@H](O)CCN)NC(=O)[C@H]([C@H](O)[C@@H](O)c2ccc(O)cc2)NC(=O)[C@@H]2C[C@@H](O)CN2C(=O)[C@H]([C@@H](C)O)NC1=O [caspofungin]	sensitivity						
CC1(C)S[C@@H]2[C@H](NC(=O)[C@H](N)c3ccccc3)C(=O)N2[C@H]1C(=O)O [ampicillin]		sensitivity	sensitivity	resistance	resistance	sensitivity	resistance
